Here are results for 17 compounds from ChEMBL document CHEMBL3390834, “Development of second generation epigenetic agents” (Medchemcomm, 2012).

Assay [1] concerns Saccharomyces cerevisiae. Briefly: Selectivity for yeast Hst1p over yeast Sir2p.
Assay [2] addresses T1, Lysine-specific demethylase 4E (Homo sapiens, UniProt B2RXH2).
T1 sequence (B2RXH2 whole entry): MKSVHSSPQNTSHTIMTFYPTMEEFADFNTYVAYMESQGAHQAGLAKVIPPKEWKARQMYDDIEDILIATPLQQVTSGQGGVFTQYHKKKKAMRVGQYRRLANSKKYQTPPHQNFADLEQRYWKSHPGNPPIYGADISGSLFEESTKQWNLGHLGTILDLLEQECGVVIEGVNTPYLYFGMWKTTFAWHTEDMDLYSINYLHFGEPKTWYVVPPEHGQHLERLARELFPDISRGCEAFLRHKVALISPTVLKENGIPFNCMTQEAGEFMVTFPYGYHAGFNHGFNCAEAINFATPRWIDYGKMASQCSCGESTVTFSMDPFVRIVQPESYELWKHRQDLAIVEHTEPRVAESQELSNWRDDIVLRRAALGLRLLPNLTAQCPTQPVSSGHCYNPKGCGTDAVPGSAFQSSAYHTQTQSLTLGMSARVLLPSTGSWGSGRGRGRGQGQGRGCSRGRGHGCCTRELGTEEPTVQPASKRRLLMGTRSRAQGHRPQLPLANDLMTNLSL
Description: Inhibition of N-terminal His-6-tagged human JMJD2E (1 to 337 residues) expressed in Escherichia coli by MALDI-TOF/MS analysis

For assay [3], the target named is T2, Histone-arginine methyltransferase CARM1 (Homo sapiens, UniProt Q86X55).
T2 sequence (Q86X55 whole entry): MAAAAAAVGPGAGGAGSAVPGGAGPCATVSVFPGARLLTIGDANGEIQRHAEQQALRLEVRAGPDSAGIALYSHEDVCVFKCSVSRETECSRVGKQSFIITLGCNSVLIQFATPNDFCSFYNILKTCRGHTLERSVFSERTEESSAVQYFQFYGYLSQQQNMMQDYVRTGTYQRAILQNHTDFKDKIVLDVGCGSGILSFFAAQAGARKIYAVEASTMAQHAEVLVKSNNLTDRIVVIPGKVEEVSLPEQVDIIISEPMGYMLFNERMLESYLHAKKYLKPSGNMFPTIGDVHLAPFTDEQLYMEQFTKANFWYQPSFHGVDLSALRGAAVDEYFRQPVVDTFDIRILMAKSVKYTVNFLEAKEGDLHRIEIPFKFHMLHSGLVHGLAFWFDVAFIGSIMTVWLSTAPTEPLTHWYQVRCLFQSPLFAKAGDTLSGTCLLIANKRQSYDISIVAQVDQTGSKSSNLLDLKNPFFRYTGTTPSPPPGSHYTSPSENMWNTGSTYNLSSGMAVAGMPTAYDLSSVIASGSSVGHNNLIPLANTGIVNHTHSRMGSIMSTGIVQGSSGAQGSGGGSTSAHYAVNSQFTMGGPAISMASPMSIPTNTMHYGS
As to the kind of experiment: Inhibition of full-length GST-tagged CARM-1 (unknown origin) expressed in Spodoptera frugiperda cells using histone H3 and tritiated-SAM as substrate.

Assay [4] is described as follows: Inhibition of DIM-5 (unknown origin). Also on record: […].
In assay [5] the target is T2, Histone-arginine methyltransferase CARM1. Briefly: Inhibition of CARM-1 (unknown origin) using Histone H3 Arg-17 as substrate.
The target of assay [6] is T3, NAD-dependent protein deacetylase sirtuin-2 (Homo sapiens, UniProt Q8IXJ6).
T3 sequence (Q8IXJ6 whole entry): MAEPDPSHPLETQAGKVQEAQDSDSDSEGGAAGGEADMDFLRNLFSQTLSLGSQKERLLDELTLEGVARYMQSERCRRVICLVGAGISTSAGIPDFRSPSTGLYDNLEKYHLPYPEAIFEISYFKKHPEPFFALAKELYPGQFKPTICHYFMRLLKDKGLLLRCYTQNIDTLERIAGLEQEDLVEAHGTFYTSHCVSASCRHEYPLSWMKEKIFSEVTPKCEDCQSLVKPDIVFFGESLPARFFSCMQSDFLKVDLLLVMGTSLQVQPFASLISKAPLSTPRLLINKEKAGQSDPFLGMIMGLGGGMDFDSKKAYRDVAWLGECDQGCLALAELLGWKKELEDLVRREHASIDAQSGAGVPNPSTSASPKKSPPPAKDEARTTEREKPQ
Briefly: Inhibition of human SIRT-2.

In assay [7] the target is NAD-dependent protein deacetylase sirtuin-1 (Homo sapiens, UniProt Q96EB6). As to the kind of experiment: Inhibition of human SIRT-1.
Chain of NAD-dependent protein deacetylase sirtuin-1 (Q96EB6 whole entry): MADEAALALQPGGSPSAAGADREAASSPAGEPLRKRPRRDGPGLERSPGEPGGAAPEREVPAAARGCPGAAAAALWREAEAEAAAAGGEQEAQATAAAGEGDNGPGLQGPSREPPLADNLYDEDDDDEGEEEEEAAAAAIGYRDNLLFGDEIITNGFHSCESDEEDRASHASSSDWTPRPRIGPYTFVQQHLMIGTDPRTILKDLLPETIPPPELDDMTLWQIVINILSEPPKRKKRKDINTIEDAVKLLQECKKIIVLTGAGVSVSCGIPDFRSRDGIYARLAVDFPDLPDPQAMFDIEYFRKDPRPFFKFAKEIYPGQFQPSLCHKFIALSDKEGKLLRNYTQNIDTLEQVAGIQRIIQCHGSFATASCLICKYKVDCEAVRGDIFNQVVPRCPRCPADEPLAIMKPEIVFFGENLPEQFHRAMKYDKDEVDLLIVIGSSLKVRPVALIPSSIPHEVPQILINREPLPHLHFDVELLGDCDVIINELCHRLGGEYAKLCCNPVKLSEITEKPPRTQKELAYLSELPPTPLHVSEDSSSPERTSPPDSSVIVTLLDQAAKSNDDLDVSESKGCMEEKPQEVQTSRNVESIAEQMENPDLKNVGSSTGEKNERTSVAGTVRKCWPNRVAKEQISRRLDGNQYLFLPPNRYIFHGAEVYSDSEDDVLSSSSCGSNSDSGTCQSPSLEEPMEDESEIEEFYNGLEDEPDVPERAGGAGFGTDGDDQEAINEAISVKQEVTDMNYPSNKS
Assay [8] concerns the target T3, NAD-dependent protein deacetylase sirtuin-2. Briefly: Inhibition of SIRT-2 (unknown origin).
The target in assay [9] is Lysine-specific demethylase 4A (Homo sapiens, UniProt O75164). Briefly: Inhibition of JMJD2A (unknown origin) using ARK(me3)STGGK peptide as substrate preincubated for 1 to 30 mins followed by substrate addition by MALDI-TOF/MS analysis.
Chain of Lysine-specific demethylase 4A (O75164 whole entry): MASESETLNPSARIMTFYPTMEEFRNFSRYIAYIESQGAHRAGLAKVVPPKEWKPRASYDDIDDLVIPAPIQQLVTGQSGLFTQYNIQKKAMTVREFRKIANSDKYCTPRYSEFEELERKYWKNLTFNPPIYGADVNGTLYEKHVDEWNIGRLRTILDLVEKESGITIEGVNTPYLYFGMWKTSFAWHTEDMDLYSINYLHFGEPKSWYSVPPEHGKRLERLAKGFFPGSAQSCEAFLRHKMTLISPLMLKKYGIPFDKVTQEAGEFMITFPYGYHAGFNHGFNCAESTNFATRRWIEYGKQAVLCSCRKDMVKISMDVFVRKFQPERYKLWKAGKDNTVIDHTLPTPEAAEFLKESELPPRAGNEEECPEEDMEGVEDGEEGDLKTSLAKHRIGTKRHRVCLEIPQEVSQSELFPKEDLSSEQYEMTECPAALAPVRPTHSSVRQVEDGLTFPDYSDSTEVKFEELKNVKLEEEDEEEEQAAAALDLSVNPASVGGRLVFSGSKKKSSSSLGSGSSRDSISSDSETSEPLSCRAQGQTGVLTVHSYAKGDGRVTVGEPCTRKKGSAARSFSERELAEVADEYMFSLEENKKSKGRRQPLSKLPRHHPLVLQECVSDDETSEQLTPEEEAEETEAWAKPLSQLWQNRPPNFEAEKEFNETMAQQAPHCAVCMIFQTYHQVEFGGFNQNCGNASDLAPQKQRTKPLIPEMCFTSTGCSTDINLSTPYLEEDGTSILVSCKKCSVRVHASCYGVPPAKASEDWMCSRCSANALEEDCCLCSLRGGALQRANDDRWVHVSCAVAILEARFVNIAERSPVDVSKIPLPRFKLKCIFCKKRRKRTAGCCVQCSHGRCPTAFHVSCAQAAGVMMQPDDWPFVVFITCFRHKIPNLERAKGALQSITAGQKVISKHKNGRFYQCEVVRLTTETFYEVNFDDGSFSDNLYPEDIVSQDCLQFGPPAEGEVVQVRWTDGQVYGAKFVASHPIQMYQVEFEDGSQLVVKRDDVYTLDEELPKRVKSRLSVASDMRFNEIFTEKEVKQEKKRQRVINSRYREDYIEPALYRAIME
The target of assay [10] is T4, Lysine-specific histone demethylase 1A (Homo sapiens, UniProt O60341). Briefly: Inhibition of human LSD-1 by fluorescence-based assay.
Assay [11] concerns the target T3, NAD-dependent protein deacetylase sirtuin-2.
Description: Inhibition of recombinant human N-terminal His6-tagged SIRT-2 using ZMAL as substrate after 4 hrs by homogeneous fluorescent deacetylase assay
Assay [12] shares this target. Briefly: Inhibition of human SIRT-2 using fluor de Lys as substrate after 2 hrs by fluorescence assay.
Assay [13] is described as follows: Inhibition of yeast Sir2p HAD activity using [3H]-acetylated histone H4 as substrate assessed as release of free [3H]-acetate after 16 hrs. Also on record: species or system Saccharomyces cerevisiae.
Assay [14] deals with T4, Lysine-specific histone demethylase 1A. Briefly: Inhibition of N-terminal His-6-tagged full length human LSD-1 expressed in Escherichia coli BL21 (DE3) using H3K4me2 peptide as substrate at 1 uM by Western blotting analysis relative to control. (In general: A western blot detects proteins with antibodies after separation by electrophoresis.)
Assay [15] deals with T5, Histone acetyltransferase p300 (Homo sapiens, UniProt Q09472). Briefly: Inhibition of p300 (unknown origin).
T5 sequence (Q09472 whole entry): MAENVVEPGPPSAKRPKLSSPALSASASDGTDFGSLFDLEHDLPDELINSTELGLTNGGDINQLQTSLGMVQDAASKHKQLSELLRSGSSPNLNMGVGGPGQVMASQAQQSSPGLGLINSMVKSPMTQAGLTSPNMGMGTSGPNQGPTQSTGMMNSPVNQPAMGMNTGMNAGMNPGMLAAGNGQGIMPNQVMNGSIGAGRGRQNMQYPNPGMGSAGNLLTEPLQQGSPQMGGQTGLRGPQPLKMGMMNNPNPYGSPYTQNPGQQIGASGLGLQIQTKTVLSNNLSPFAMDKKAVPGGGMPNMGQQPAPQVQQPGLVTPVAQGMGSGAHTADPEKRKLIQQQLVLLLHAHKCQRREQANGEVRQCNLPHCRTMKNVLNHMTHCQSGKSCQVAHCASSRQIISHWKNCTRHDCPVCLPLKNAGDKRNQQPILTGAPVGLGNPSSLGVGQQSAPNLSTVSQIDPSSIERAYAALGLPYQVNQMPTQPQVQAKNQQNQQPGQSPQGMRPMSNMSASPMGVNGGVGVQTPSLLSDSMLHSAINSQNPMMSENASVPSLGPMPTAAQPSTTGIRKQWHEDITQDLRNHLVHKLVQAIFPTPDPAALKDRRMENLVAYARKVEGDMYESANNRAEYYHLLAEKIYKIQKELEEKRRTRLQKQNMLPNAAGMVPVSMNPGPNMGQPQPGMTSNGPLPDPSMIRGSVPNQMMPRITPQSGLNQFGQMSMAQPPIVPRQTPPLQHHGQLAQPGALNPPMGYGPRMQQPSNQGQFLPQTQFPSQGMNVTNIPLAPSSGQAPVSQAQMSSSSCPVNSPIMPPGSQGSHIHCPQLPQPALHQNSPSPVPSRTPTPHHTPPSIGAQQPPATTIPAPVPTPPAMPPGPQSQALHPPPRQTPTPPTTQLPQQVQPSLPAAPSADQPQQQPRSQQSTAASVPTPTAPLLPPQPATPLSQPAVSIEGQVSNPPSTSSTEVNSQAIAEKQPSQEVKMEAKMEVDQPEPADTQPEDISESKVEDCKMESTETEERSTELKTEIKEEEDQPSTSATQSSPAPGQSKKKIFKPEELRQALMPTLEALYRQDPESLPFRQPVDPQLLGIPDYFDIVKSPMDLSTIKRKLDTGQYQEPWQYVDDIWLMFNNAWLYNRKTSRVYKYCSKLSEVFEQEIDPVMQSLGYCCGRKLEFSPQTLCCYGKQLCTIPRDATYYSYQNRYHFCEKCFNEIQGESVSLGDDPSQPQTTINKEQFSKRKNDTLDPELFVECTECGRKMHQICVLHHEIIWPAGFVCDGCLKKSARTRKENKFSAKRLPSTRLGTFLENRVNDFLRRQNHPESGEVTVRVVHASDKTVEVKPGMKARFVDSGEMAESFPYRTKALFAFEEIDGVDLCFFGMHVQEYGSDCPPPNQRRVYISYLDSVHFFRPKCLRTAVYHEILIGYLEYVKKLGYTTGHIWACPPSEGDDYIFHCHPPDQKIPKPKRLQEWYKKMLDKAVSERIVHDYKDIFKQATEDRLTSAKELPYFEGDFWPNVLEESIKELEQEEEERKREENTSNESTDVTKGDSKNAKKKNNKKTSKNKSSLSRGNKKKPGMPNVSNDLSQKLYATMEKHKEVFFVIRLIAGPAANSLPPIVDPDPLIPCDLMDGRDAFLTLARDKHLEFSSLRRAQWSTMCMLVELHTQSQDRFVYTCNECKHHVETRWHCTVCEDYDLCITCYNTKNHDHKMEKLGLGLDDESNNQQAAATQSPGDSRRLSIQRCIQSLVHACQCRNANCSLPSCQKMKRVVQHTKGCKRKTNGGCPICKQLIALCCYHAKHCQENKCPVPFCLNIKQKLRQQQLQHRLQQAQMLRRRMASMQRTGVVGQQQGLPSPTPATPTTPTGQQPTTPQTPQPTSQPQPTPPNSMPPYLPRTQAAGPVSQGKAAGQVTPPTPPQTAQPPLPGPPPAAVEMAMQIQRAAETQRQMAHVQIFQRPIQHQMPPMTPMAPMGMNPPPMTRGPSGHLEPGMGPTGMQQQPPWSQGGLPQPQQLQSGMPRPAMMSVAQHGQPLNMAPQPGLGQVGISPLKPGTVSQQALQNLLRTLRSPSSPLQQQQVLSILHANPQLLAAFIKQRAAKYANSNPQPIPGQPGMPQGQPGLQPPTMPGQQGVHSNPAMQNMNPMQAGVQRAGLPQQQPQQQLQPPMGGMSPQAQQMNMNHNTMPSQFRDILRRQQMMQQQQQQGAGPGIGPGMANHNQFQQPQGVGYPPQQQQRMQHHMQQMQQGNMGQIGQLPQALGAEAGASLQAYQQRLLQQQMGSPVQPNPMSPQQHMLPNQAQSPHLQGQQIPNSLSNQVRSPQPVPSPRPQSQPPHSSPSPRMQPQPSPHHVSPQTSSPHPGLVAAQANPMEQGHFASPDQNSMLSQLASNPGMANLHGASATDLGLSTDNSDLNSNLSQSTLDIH
Assay [16] concerns Saccharomyces cerevisiae. Briefly: Selectivity for yeast Sir2p over yeast Hst1p.
The target of assay [17] is T5, Histone acetyltransferase p300.
Description: Inhibition of His6-tagged recombinant full length p300 (unknown origin) expressed in baculovirus infected insect Sf21 cells using [3H]acetyl-CoA as substrate preincubated for 10 mins followed by substrate addition measured after 10 mins by liquid scintillation counting analysis
The species entered for another assay is Homo sapiens. As to the kind of experiment: Selectivity ratio of IC50 for MAO-B (unknown origin) to IC50 for LSD-1 (unknown origin).
Assay [18] has as its target T4, Lysine-specific histone demethylase 1A. Briefly: Inhibition of LSD-1 (unknown origin).
A further assay concerns the target Histone deacetylase 1 (Homo sapiens, UniProt Q13547).

Chain of Histone deacetylase 1 (Q13547 whole entry): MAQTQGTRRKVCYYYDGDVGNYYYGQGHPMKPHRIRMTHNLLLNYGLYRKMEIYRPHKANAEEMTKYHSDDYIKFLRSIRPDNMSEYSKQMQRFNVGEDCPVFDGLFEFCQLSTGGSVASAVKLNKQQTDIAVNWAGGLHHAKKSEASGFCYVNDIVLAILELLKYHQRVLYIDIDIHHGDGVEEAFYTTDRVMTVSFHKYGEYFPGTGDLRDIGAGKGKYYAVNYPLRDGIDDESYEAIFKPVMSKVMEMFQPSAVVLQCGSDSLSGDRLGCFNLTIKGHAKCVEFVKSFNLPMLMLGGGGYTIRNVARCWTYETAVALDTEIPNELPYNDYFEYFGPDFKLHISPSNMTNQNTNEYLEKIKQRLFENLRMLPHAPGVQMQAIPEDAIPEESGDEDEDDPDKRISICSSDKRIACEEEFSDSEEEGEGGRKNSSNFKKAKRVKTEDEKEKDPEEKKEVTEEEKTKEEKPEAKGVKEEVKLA
Description for Histone deacetylase 1: Inhibition of HDAC-1 (unknown origin) using (FAM)-labeled acetylated peptide as substrate after 17 hrs by fluorescence assay

For `O=c1ccc2c(ccc3ccccc32)o1`, the Selectivity ratio in the assay with Saccharomyces cerevisiae [1] was determined as 5. Take `Oc1ccc(C2CNCCc3c2cc(O)c(O)c3Cl)cc1` (stereo not given) [FENOLDOPAM]: half-maximal inhibition in [2] (IC50) was put at 3 µM.

As for `CNCCN1CCC(c2ccc3[nH]c(-c4ccccc4OC)c(F)c3c2)CC1`, the concentration for half-maximal inhibition (IC50) (as a rule, the midpoint of a concentration-inhibition curve) in assay [3] came out at 30 nM. In assay [4], `CN1C(=O)[C@@]23C[C@]4([C@]56C[C@@]78SS[C@@](CO)(C(=O)N7[C@H]5Nc5ccccc56)N(C)C8=O)c5ccccc5N[C@@H]4N2C(=O)[C@]1(CO)SS3` [CHAETOCIN] came in with an IC50 of 3000 nM.

Regarding `O=c1oc2c(O)c(O)cc3c(=O)oc4c(O)c(O)cc1c4c23` [ELLAGIC ACID], in [5], the IC50 is 25 µM. Take `CC(C)=CCC/C(C)=C/C[C@@H]1C[C@@]2(CC=C(C)C)C(=O)[C@](CC=C(C)C)(C(=O)C(C(=O)c3ccc(O)c(O)c3)=C2O)[C@@]1(C)CCC=C(C)C`: the IC50 in [6] was 22 µM; in assay [7], 9 µM.

In assay [8], `NC(=O)c1ccccc1Nc1ccccc1` [ANILINOBENZAMIDE] displayed an IC50 of 74 µM.

Turning to `CCNC(=S)SSC(=S)NCC`, the IC50 in [9] was found to be 15.3 µM. Compound `O=C(O)/C=C/C(=O)N(O)CCCCNCc1ccc(COC(=O)Nc2cccc3ccccc23)cc1` displayed a half-inhibitory concentration (IC50) in assay [10] of 620 µM. With `CCCCCCCCCCC[C@]1(CO)CCCC(=O)O[C@](CO)(CCCCCCCCCCC)CCCC(=O)O1`, the results for the IC50 in assay [11] and in [12] were 2000 nM and 176 nM, respectively. Turning to `O=C1CCc2c(ccc3ccccc23)O1` [SPLITOMICIN], the IC50 in assay [13] amounted to 60 µM.

Turning to `C/N=C(\NC)NCCCNCCCNCCCN/C(=N/C)NC`, the inhibition (commonly the relative decrease from the control value, in per cent) in [14] was more than 50%. With `CC(=O)N[C@@H](CCCCNC(=O)CSCCNC(=O)CCNC(=O)[C@H](O)C(C)(C)COP(=O)(O)OP(=O)(O)OC[C@H]1O[C@@H](n2cnc3c(N)ncnc32)[C@H](O)[C@@H]1OP(=O)(O)O)C(N)=O`, in assay [15], affinity was put at a Ki of 19 nM. In the case of `O=C1CCc2c(c(OCc3ccccc3)cc3ccccc23)O1`, the Selectivity ratio in the assay on Saccharomyces cerevisiae [16] was found to be 13. In turn, `C=C(C)[C@@H](CC=C(C)C)C[C@@]12C[C@@H](CC=C(C)C)C(C)(C)[C@@](CC=C(C)C)(C(=O)C(C(=O)c3ccc(O)c(O)c3)=C1O)C2=O` [GARCINOL] yielded an IC50 in assay [17] of 7 µM. Consider `NC1CC1c1c(F)cc(F)cc1OCc1ccccc1` (stereo not given), for which the Ratio IC50 in the assay listed under Homo sapiens is more than 250. In [18], the IC50 came to 990 nM. Regarding `Nc1ccccc1NC(=O)CCCCCCC(=O)Nc1cccc(-c2cn(-c3ccccc3)nn2)c1`, the IC50 on Histone deacetylase 1 was more than 30 µM.
